Consider 28 compounds from patent US20180243298A1, “TRPV3 MODULATORS” (AbbVie Inc., priority 2015, published 2018).

This assay concerns the target T1, human TRPV3 (Homo sapiens, UniProt Q8NET8).
T1 construct: expressed in transfected cells; host or cells: HEK293
T1 sequence (Q8NET8 1-790): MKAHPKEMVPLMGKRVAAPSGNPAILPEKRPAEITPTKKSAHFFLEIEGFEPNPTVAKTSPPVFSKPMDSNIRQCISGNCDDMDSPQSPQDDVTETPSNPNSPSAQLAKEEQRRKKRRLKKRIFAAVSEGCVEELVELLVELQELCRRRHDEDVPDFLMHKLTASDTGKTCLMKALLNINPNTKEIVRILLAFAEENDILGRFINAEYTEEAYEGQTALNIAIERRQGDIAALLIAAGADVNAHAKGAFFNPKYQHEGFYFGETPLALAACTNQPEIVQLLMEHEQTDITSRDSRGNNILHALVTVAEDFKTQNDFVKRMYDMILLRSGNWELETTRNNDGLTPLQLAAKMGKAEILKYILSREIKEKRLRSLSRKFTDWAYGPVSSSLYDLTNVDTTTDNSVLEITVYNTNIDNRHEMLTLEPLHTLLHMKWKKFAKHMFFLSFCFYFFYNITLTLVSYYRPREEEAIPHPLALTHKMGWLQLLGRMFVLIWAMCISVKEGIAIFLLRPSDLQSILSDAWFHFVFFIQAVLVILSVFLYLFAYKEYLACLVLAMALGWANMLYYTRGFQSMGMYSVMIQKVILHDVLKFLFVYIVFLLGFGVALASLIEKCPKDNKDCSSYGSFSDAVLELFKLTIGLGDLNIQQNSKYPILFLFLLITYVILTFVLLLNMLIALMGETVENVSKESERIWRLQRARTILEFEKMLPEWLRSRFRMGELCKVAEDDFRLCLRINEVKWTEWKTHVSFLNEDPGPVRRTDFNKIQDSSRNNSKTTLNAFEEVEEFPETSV
Nature of the assay: Calcium flux assay (FLIPR TETRA), recombinant HEK293 cells expressing TRPV3, 2-APB response. The assay is classed as cell-based. As to conditions: 2-APB at its EC80. As for the experimental part:
(i) In Vitro Methods-Calcium Flux Assays:
Experiments were conducted using the FLIPR TETRA®. On the day prior to the experiment, recombinant HEK293 cells that stably express human and mouse TRPV3 were removed from tissue culture flasks and plated in growth medium at 20,000 cells/well into black-walled clear-bottom 384-well BIOCOAT™ poly-D-lysine assay plates (BD Biosciences, Bedford, Mass.) using a MULTIDROP® dispenser (ThermoScientific, Waltham, Mass.). On the day of the experiment, growth medium was removed, and the no-wash FLIPR® Calcium-4 dye (λEX=470-495 nm, λEM=515-575 nm; Molecular Devices, Sunnyvale, Calif.) was added to each well using the MULTIDROP® dispenser. Cells were incubated for 90-120 minutes in the dark. The compounds were dissolved in DMSO to prepare a 10 mM stock solution. The intensity of the fluorescence was captured and digitally transferred to an interfaced PC. The peak increase in fluorescence over baseline, measured in relative fluorescence units, was calculated and expressed as the percentage of the maximal 2-APB (2-aminoethoxyldiphenyl borate) response (in the absence of compound). The concentration of 2-APB corresponds to its EC80.
(Calcium flux is commonly read through the fluorescence of an indicator in the cells.)

As a reminder, the IC50 is the concentration needed to halve the response being measured. Turning to `CCc1sc(NC(=O)c2c(OC)nc(C)nc2OC)nc1C(F)(F)F` [Example 69, N-[5-ethyl-4-(trifluoromethyl)-1,3-thiazol-2-yl]-4,6-dimethoxy-2-methylpyrimidine-5-carboxamide], the IC50 fell in the range of 50 to 100 nM.

Consider `COc1ncnc(OC)c1C(=O)Nc1nc(C(F)(F)F)c(C2(F)CCOCC2)s1` [Example 118, N-[5-(4-fluorotetrahydro-2H-pyran-4-yl)-4-(trifluoromethyl)-1,3-thiazol-2-yl]-4,6-dimethoxypyrimidine-5-carboxamide], for which the IC50 lay in the range of 500 to 1000 nM.

As to `COc1ncnc(OC)c1C(=O)Nc1nc(C(F)(F)F)c(CNC(C)(C)C)s1` [Example 56, N-{5-[(tert-butylamino)methyl]-4-(trifluoromethyl)-1,3-thiazol-2-yl}-4,6-dimethoxypyrimidine-5-carboxamide], the IC50 is above 1000 nM.

For the compound `COc1ncnc(OC)c1C(=O)Nc1nc(C(C)(C)C)c(Br)s1` [Example 192, N-(5-bromo-4-tert-butyl-1,3-thiazol-2-yl)-4,6-dimethoxypyrimidine-5-carboxamide], the IC50 was below 50 nM.

For the compound `COc1ncnc(OC)c1C(=O)Nc1nc(-c2ccc(C(F)(F)F)cn2)c(S(=O)(=O)c2ccc(C)cc2)s1` [Example 109, 4,6-dimethoxy-N-[5-(p-tolylsulfonyl)-4-[5-(trifluoromethyl)-2-pyridyl]-1,3-thiazol-2-yl]pyrimidine-5-carboxamide], the IC50 fell in the range of 100 to 500 nM.

In the case of `COc1ncnc(OC)c1C(=O)Nc1nc(C(F)(F)F)c(CN2CCC3(CC2)COC3)s1` [Example 61, 4,6-dimethoxy-N-[5-(2-oxa-7-azaspiro[3.5]non-7-ylmethyl)-4-(trifluoromethyl)-1,3-thiazol-2-yl]pyrimidine-5-carboxamide], the IC50 was in the range of 100 to 500 nM.

As to `CCc1sc(NC(=O)c2c(OC)ncnc2OC)nc1C(F)(F)F` [Example 6, N-[5-ethyl-4-(trifluoromethyl)-1,3-thiazol-2-yl]-4,6-dimethoxypyrimidine-5-carboxamide], the IC50 was below 50 nM.

Consider `COc1ncnc(OC)c1C(=O)Nc1nc(C(F)(F)F)c(-c2cnn(C3CC3)c2)s1` [Example 168, N-[5-(1-cyclopropyl-1H-pyrazol-4-yl)-4-(trifluoromethyl)-1,3-thiazol-2-yl]-4,6-dimethoxypyrimidine-5-carboxamide], for which the IC50 was 50 to 100 nM.

Consider `COc1ncnc(OC)c1C(=O)Nc1nc(C2CC2)c(Cc2ccc(F)cc2)s1` [Example 190, N-[4-cyclopropyl-5-(4-fluorobenzyl)-1,3-thiazol-2-yl]-4,6-dimethoxypyrimidine-5-carboxamide], for which the IC50 was 50 to 100 nM.

For the compound `COc1ncnc(OC)c1C(=O)Nc1nc(C(F)(F)F)c(C2CCOCC2)s1` [Example 39, 4,6-dimethoxy-N-[5-(tetrahydro-2H-pyran-4-yl)-4-(trifluoromethyl)-1,3-thiazol-2-yl]pyrimidine-5-carboxamide], the IC50 was 50 to 100 nM.

For `COc1ncnc(OC)c1C(=O)Nc1nc(C(F)(F)F)c(C2OCCO2)s1` [Example 138, N-[5-(1,3-dioxolan-2-yl)-4-(trifluoromethyl)-1,3-thiazol-2-yl]-4,6-dimethoxypyrimidine-5-carboxamide], the IC50 lay within 100 to 500 nM.

`COc1ncnc(OC)c1C(=O)Nc1nc(-c2ccc(C(F)(F)F)cn2)c(CN2CCOCC2)s1` [Example 77, 4,6-dimethoxy-N-{5-(morpholin-4-ylmethyl)-4-[5-(trifluoromethyl)pyridin-2-yl]-1,3-thiazol-2-yl}pyrimidine-5-carboxamide]: the IC50 was below 50 nM.

In the case of `COc1ncnc(OC)c1C(=O)Nc1nc(C(F)(F)F)c(-c2cccc(F)c2C#N)s1` [Example 25, N-[5-(2-cyano-3-fluorophenyl)-4-(trifluoromethyl)-1,3-thiazol-2-yl]-4,6-dimethoxypyrimidine-5-carboxamide], the IC50 was below 50 nM.

Take `COc1ncnc(OC)c1C(=O)Nc1nc(COc2ccccc2C)cs1` [Example 179, 4,6-dimethoxy-N-{4-[(2-methylphenoxy)methyl]-1,3-thiazol-2-yl}pyrimidine-5-carboxamide]: the IC50 fell in the range of 100 to 500 nM.

For `COc1ncnc(OC)c1C(=O)Nc1nc(/C=C/c2ccc(F)cc2)cs1` [Example 106, N-{4-[(E)-2-(4-fluorophenyl)ethenyl]-1,3-thiazol-2-yl}-4,6-dimethoxypyrimidine-5-carboxamide], the IC50 fell in the range of 500 to 1000 nM.

`COc1ncnc(OC)c1C(=O)Nc1nc(C(F)(F)F)c(-c2ccnn2C(C)C)s1` [Example 180, 4,6-dimethoxy-N-{5-[1-(propan-2-yl)-1H-pyrazol-5-yl]-4-(trifluoromethyl)-1,3-thiazol-2-yl}pyrimidine-5-carboxamide]: the IC50 is below 50 nM.

As for `COc1ncnc(OC)c1C(=O)Nc1nc(C(F)(F)F)c(I)s1` [Example 2, N-[5-iodo-4-(trifluoromethyl)-1,3-thiazol-2-yl]-4,6-dimethoxypyrimidine-5-carboxamide], the half-inhibitory concentration (IC50) was below 50 nM.

On to `CCOC(=O)c1sc(NC(=O)c2c(OC)ncnc2OC)nc1C(F)(F)F` [Example 21, ethyl 2-{[(4,6-dimethoxypyrimidin-5-yl)carbonyl]amino}-4-(trifluoromethyl)-1,3-thiazole-5-carboxylate], for which the IC50 was below 50 nM.

Regarding `COc1ncnc(OC)c1C(=O)Nc1nc(C(F)(F)F)c(-c2ccc(CN3CCOCC3)cc2)s1` [Example 198, 4,6-dimethoxy-N-{5-[4-(morpholin-4-ylmethyl)phenyl]-4-(trifluoromethyl)-1,3-thiazol-2-yl}pyrimidine-5-carboxamide], the IC50 was below 50 nM.

In the case of `COc1ncnc(OC)c1C(=O)Nc1nc(C(F)(F)F)c(C#C[Si](C)(C)C)s1` [Example 10, 4,6-dimethoxy-N-{4-(trifluoromethyl)-5-[(trimethylsilyl)ethynyl]-1,3-thiazol-2-yl}pyrimidine-5-carboxamide], the IC50 is below 50 nM.

On to `COc1ncnc(OC)c1C(=O)Nc1nc(C(F)(F)F)c(-c2cn(C)nc2C)s1` [Example 67, N-[5-(1,3-dimethyl-1H-pyrazol-4-yl)-4-(trifluoromethyl)-1,3-thiazol-2-yl]-4,6-dimethoxypyrimidine-5-carboxamide], for which the IC50 lay in the range of 50 to 100 nM.

`COc1ncnc(OC)c1C(=O)Nc1nc(C(F)(F)F)c(CN2CCCC3(COC3)C2)s1` [Example 62, 4,6-dimethoxy-N-[5-(2-oxa-6-azaspiro[3.5]non-6-ylmethyl)-4-(trifluoromethyl)-1,3-thiazol-2-yl]pyrimidine-5-carboxamide]: the IC50 lay within 50 to 100 nM.

For the compound `COc1ncnc(OC)c1C(=O)Nc1nc(C(F)(F)F)c(C2=CCOCC2)s1` [Example 38, N-[5-(3,6-dihydro-2H-pyran-4-yl)-4-(trifluoromethyl)-1,3-thiazol-2-yl]-4,6-dimethoxypyrimidine-5-carboxamide], the half-maximal inhibitory concentration (IC50) is below 50 nM.

As for `COc1ncnc(OC)c1C(=O)Nc1nc(C2CCC2)c(C#N)s1` [Example 102, N-(5-cyano-4-cyclobutyl-1,3-thiazol-2-yl)-4,6-dimethoxypyrimidine-5-carboxamide], the IC50 was in the range of 100 to 500 nM.

Take `CO/N=C(\C)c1sc(NC(=O)c2c(OC)ncnc2OC)nc1C(F)(F)F` [Example 135, 4,6-dimethoxy-N-{5-[(1E)-N-methoxyethanimidoyl]-4-(trifluoromethyl)-1,3-thiazol-2-yl}pyrimidine-5-carboxamide]: the IC50 was below 50 nM.

For `COCc1sc(NC(=O)c2c(OC)ncnc2OC)nc1-c1ccc(C(F)(F)F)cn1` [Example 86, 4,6-dimethoxy-N-{5-(methoxymethyl)-4-[5-(trifluoromethyl)pyridin-2-yl]-1,3-thiazol-2-yl}pyrimidine-5-carboxamide], the IC50 is below 50 nM.

On to `COc1ncnc(OC)c1C(=O)Nc1nc(-c2ccc(OC(F)(F)F)cc2)c(C(C)O)s1` (stereo not shown) [Example 82, N-{5-(1-hydroxyethyl)-4-[4-(trifluoromethoxy)phenyl]-1,3-thiazol-2-yl}-4,6-dimethoxypyrimidine-5-carboxamide], for which the IC50 lay in the range of 100 to 500 nM.

In the case of `COCCCc1sc(NC(=O)c2c(OC)ncnc2OC)nc1C(F)(F)F` [Example 16, 4,6-dimethoxy-N-[5-(3-methoxypropyl)-4-(trifluoromethyl)-1,3-thiazol-2-yl]pyrimidine-5-carboxamide], the IC50 is below 50 nM.
